Assay results as given in US5776970A, “Tryptophan derivatives as protein tyrosine kinase blockers and their use in the treatment of neoplastic diseases” (Yeda Research and Development Co. Ltd., priority 1994, dated 1998).
pIC50: −log10 of the molar value.

Assays:
rat adipocytes = experiment: permeability into cell interiors (intact cell system, lipogenesis); assay type: cell-based; details: graded in words
Protocol: Rat adipocytes were prepared essentially by the method of Rodbell, 1964. The fat pads of three rats were cut into small pieces with scissors and digested in 3 ml of Krebs-Ringer-Bicarbonate (KRB)-buffer containing 0.7% bovine serum albumin (BSA) (pH 7.4) with collagenase (1 mg/ml). The digestion was performed in a 25 ml flexible plastic bottle under an atmosphere of carbogen (95% O2, 5% CO2) for 40 min at 37° C. with vigorous shaking. Five ml of buffer was then added, and the cells were squeezed through a mesh screen. The cells were then allowed to stand for several minutes (in a 15 ml plastic test tube at room temperature, floating) and the buffer underneath was removed. This procedure (suspension, floating and removal of buffer underneath) was repeated three times. For [^14 C-U]glucose incorporation (lipogenesis), the fat cell suspensions (3×10^5 cells/ml) were divided into plastic vials (0.5 ml per vial) and incubated for 60 min at 37° C. under an atmosphere of 95% O2, 5% CO2, with 0.2 mM [U-^14 C]glucose, in either the presence or absence of insulin (100 ng/ml) and the indicated concentrations in FIG. 2 of CBZ-DNPS-TRP-TAU. The reaction was terminated by adding toluene-based scintillation fluid (1.0 ml per vial) and the extracted lipids were counted (Shechter and Karlish, 1980). Fat cell suspensions were pre-incubated for 20 min at 37° C. with increasing concentrations of the inhibitors. Results are expressed in FIG. 2 as the percent of maximal stimulation at the indicated concentrations of inhibitors. In all experiments insulin-stimulated lipogenesis was 4- to 5-fold higher than basal; basal ~2000 cpm per 3×10^5 cells/h; Vinsulin 8000-10,000 cpm per 3×10^5 cells/h.
(§1) Various derivatives according to the invention in which R^1 is benzyloxycarbonyl (CBZ) or t-butoxycarbonyl (t-Boc), R^2 is --SO3 H or --PO3 H, n is 1,2 or 3, and R^3 is H, 2-nitrophenylthio (NPS) or 2,4-dinitrophenylthio (DNPS) were prepared and examined in cell-free and intact cell systems. The cell-free assay is PolyGlu4 Tyr phosphorylation by partially purified insulin receptor as described in Example 3. The assay in intact cells (namely, lipogenesis) was carried out as described in Example 4.

solubility = details: water
[1] = molecular target: T1, insulin receptor tyrosine kinase (InsRTK) (Rattus norvegicus, UniProt P15127); experiment: PolyGlu4 Tyr phosphorylation by partially purified (wheat-germ-agglutinin purified) rat liver insulin receptor, cell-free; assay type: biochemical; design: wheat-germ-agglutinin purified rat liver insulin receptor; from tissue; host or cells: rat liver (wheat-germ-agglutinin purified); details: for Relative cell-free potency in inhibiting InsRTK: CBZ-DNPS-TRP-Taurine 100
Protocol: An assay of PolyGlu4 Tyr phosphorylation by partially purified insulin receptor was run for 30 min at 22° C. in 60 μl of 50 mM Hepes (pH 7.4)-0.1% Triton X-100 containing wheat-germ-agglutinin purified rat liver insulin receptor (1 μg protein), MgCl2 25 mM; MnCl2, 1 mM, ATP 17 μM, insulin 0.1 μM, PolyGlu4 Tyr, 0.17 mg/ml and the indicated concentrations in FIG. 1 of CBZ-DNPS-TRP-TAU. Phosphotyrosine content in PolyGlu4 Tyr was determined by a radioimmunoassay procedure (Shisheva et al., 1991). […] The inhibitory potency of other derivatives of formula I on InsRTK-catalyzed PolyGlu4 Tyr phosphorylation in cell-free experiments was determined. […] For comparison, the IC50 values for AC-TRP-TAU and L-tryptophan are 5 mM and >30 mM, respectively.
as §1
Target sequence in this assay (P15127 764-1383 limits assumed): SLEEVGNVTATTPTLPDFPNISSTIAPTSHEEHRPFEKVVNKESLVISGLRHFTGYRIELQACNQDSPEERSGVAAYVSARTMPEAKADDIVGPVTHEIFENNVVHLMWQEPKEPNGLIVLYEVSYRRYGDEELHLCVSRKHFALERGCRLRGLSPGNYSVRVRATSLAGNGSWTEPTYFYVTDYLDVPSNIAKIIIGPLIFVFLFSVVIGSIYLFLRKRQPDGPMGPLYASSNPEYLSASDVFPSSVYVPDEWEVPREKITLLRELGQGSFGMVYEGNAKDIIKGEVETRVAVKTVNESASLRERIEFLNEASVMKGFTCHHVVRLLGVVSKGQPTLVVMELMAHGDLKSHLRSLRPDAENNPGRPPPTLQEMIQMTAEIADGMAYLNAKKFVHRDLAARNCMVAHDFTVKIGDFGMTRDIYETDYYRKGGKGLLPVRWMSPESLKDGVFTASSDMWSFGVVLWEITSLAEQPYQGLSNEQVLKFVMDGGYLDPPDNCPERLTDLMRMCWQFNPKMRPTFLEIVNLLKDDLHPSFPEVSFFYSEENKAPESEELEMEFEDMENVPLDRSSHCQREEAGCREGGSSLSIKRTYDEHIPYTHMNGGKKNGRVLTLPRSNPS
Target sequence in this assay (P15127 27-759 partner limits assumed): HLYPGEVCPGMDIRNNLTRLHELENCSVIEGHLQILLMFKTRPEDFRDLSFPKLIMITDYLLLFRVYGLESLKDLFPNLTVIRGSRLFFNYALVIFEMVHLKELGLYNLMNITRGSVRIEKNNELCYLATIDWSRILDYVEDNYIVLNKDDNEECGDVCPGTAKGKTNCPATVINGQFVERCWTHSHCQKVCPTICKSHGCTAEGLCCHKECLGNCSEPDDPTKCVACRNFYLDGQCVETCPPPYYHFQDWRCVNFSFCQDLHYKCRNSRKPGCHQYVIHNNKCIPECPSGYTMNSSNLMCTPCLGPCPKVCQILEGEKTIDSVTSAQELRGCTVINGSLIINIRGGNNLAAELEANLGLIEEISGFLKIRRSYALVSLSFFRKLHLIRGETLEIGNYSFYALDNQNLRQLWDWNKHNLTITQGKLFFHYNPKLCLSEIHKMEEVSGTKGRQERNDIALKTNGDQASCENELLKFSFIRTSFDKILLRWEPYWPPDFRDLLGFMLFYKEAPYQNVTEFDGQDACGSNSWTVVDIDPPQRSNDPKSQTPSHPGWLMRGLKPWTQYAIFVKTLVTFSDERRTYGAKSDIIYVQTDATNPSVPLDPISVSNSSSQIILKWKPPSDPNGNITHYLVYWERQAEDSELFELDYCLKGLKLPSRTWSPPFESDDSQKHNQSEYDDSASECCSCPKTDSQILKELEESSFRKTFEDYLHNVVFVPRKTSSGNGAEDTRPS

[2] = system: isoproterenol-mediated lipolysis; experiment: isoproterenol-mediated lipolysis in rat adipocytes (glycerol release); assay type: cell-based; details: isoproterenol 1 μM alone
Protocol: In general there are two classes of protein kinases (PKs) in mammalian tissues: (a) PKs which phosphorylate tyrosine moieties in proteins (to phosphotyrosine), and (b) PKs which phosphorylate serine and threonine moieties (to phosphoserine and phosphotreonine). […] An example for such a metabolic effect is lipolysis which depends on protein kinase A. Rat adipocytes (prepared by the method of Rodbell, 1964) were incubated with isoproterenol alone (1 μM) or isoproterenol with CBZ-DNPS-TRP-TAU (200 μM) for one hour at 37° C. The amount of glycerol released from the cells was then determined by spectroscopic procedure (Shechter, 1982).

[3] = molecular target: T1, insulin receptor tyrosine kinase (InsRTK); experiment: inactivation of InsRTK by affinity reagent; assay type: biochemical; details: covalent affinity reagent
From the text: Thus, to design and synthesize a low molecular weight blocker of InsRTK able to permeate into cell interiors, we first searched for an affinity reagent that would covalently bind and inactivate the InsRTK at low concentrations. […] The complementary hydrophilic domain of the InsRTK contains a lysine moiety that reacts covalently with the active ester and is likely to participate in substrate binding or catalysis. Equipped with this information we have synthesized a family of competitive inhibitors.
Target sequence in this assay (P15127 27-1383): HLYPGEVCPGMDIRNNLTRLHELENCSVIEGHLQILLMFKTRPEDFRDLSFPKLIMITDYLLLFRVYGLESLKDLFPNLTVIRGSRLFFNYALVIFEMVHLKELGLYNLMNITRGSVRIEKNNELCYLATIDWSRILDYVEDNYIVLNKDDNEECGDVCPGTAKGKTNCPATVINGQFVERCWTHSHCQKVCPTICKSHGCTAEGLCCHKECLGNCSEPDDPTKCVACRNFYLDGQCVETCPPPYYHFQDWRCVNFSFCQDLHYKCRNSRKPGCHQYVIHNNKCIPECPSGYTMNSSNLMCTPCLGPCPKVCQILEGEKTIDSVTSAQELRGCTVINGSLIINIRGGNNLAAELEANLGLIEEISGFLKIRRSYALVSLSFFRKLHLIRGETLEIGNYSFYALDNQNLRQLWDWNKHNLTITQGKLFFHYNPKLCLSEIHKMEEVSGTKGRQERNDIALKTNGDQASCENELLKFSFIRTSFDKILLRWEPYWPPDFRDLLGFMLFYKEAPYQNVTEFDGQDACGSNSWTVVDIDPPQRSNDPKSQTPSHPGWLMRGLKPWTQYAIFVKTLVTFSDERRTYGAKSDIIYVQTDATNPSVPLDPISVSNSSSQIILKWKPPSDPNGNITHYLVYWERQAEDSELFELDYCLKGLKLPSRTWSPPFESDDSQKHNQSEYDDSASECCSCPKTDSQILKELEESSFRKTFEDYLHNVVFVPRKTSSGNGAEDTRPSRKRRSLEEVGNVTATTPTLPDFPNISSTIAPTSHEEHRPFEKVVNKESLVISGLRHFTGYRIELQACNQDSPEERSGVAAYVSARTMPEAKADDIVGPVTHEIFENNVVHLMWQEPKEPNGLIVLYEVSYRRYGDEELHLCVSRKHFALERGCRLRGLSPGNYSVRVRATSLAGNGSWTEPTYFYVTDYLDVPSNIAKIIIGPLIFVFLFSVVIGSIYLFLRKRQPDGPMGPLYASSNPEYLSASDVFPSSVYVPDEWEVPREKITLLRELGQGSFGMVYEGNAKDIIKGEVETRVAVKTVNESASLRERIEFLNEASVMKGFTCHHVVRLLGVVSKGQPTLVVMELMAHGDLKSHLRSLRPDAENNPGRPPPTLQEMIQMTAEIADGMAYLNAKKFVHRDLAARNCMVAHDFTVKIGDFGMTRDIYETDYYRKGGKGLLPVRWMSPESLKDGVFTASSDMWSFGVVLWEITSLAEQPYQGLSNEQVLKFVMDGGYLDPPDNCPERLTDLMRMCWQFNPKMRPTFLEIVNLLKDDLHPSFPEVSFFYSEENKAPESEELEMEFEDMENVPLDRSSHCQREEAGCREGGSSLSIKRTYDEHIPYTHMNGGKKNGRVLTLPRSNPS

[4] = system: insulin-stimulated lipogenesis in rat adipocytes; experiment: insulin-stimulated lipogenesis in rat adipocytes ([U-14C]glucose incorporation); assay type: cell-based; details: insulin 100 ng/ml
Protocol: The fat pads of three rats were cut into small pieces with scissors and digested in 3 ml of Krebs-Ringer-Bicarbonate (KRB)-buffer containing 0.7% bovine serum albumin (BSA) (pH 7.4) with collagenase (1 mg/ml). […] Five ml of buffer was then added, and the cells were squeezed through a mesh screen. The cells were then allowed to stand for several minutes (in a 15 ml plastic test tube at room temperature, floating) and the buffer underneath was removed. This procedure (suspension, floating and removal of buffer underneath) was repeated three times. […] Fat cell suspensions were pre-incubated for 20 min at 37° C. with increasing concentrations of the inhibitors. Results are expressed in FIG. 2 as the percent of maximal stimulation at the indicated concentrations of inhibitors.

[5] = system: murine T-cell lymphoma (LB3); experiment: insulin-dependent proliferation of murine T-cell lymphoma (LB3), thymidine incorporation; assay type: cell-based; details: 30,000 LB3 cells; insulin or other mitogens
Protocol: LB cells were removed from the peritoneal cavity of BALB/c mice, washed and resuspended in RPMI-1640. Then a continuous line designated LB3 was established in "LB medium" (50% RPMI-1640 plus 50% DCCM-1 in 10% fetal calf serum (FCS)). The LB3 cells were incubated (37° C., 5% CO2) in microplate wells (Nunc, Roskilde, Denmark) with 0.2 ml RPMI-1640 alone and in the same medium containing insulin, fetal calf serum (FCS) or both, and different concentrations of the compound CBZ-DNPS-TRP-TAU as indicated in FIG. 3. Proliferation capacity was determined by thymidine incorporation (^3 H-TdR, 1 μCi/well, specific activity 5 Ci/mM), added to the cells 24 hours later. In a typical experiment, cpm of ^3 H-thymidine incorporated into 30,000 cells was 12-14 fold higher in the presence of insulin or other mitogens than in their absence.

[6] = cell-free, 30 min, 22° C., pH 7.4, ATP 17 μM, insulin 0.1 μM, read-out: IC50 value, InsRTK-catalyzed PolyGlu4 Tyr phosphorylation

Row | Compound | Permeability into cell interiors (rat adipocytes) | Relative cell-free potency in inhibiting InsRTK [1] | also measured
1 | O=C(N[C@@H](Cc1c[nH]c2ccccc12)C(=O)NCCS(=O)(=O)O)OCc1ccccc1 [CBZ-TRP-TAU] | poor | 20% | solubility (solubility): ≤ 1300 mM; pIC50 [1, 6]: 2.57
2 | CC(C)NCC(O)c1ccc(O)c(O)c1 (centres unmarked) [Isoproterenol, isoproterenol, reference compound] |  |  | activity at 1 µM ([2]; Rattus norvegicus, Adipocyte, read-out: Percent lipolysis): 100%; Amount of glycerol released [2]: 165 nmol/3 × 10^5 cells/3 h
3 | CC(=O)N[C@@H](Cc1c[nH]c2ccccc12)C(=O)NCCS(=O)(=O)O [AC-TRP-TAU, reference compound] |  |  | pIC50 [1, 6]: 2.30
4 | O=C(O)CC(NC(=O)[C@H](Cc1c(Sc2ccc([N+](=O)[O-])cc2[N+](=O)[O-])[nH]c2ccccc12)NC(=O)OCc1ccccc1)C(=O)O (some centres unmarked) [CBZ-DNPS-TRP-Aspartic Acid] | good | 5% | 
5 | CC(=O)N[C@@H](Cc1c(Sc2ccc([N+](=O)[O-])cc2[N+](=O)[O-])[nH]c2ccccc12)C(=O)NCCS(=O)(=O)O [Acetyl-DNPS-TRP-Taurine] | poor | 80% | Permeability into cell interiors (rat adipocytes; listed as acetyl-DNPS-TRP-TAU): low permeability; inhibition of InsRTK in words ([1]; cell-free experiments): inhibits InSRTK
6 | CC(C)(C)OC(=O)N[C@@H](Cc1c(Sc2ccc([N+](=O)[O-])cc2[N+](=O)[O-])[nH]c2ccccc12)C(=O)NCS(=O)(=O)O [tBoc-DNPS-TRP-aminomethyl-SO3, tBoc-DNPS-TRP-aminomethylsulfonic acid] | excellent | 80% | 
7 | O=C(NC(Cc1ccccc1)C(=O)ON1C(=O)CCC1=O)OCc1ccccc1 (centres unmarked) [CBZ-Phe-OSU, benzyloxycarbonylphenyl-N-hydroxysuccinimide ester] |  |  | pIC50 [3]: 4.30
8 | N[C@@H](Cc1c[nH]c2ccccc12)C(=O)O [L-tryptophan, reference compound] |  |  | pIC50 [1]: < 1.52
9 | O=C(N[C@@H](Cc1c(Sc2ccc([N+](=O)[O-])cc2[N+](=O)[O-])[nH]c2ccccc12)C(=O)NCCCS(=O)(=O)O)OCc1ccccc1 [CBZ-DNPS-TRP-aminopropyl-SO3, CBZ-DNPS-TRP-aminopropylsulfonic acid] | excellent | 70% | 
10 | insulin |  |  | Vinsulin (lipogenesis) [4]: 8000-10,000 cpm per 3×10^5 cells/h; 3H-thymidine incorporation in presence vs absence of insulin [5]: 12-14 fold
11 | O=C(N[C@@H](Cc1c[nH]c2ccccc12)C(=O)NCCCS(=O)(=O)O)OCc1ccccc1 [CBZ-TRP-β-TAU] |  |  | pIC50 [1, 6]: 2.46
12 | CC(C)(C)OC(=O)N[C@@H](Cc1c(Sc2ccc([N+](=O)[O-])cc2[N+](=O)[O-])[nH]c2ccccc12)C(=O)NCCCS(=O)(=O)O [tBoc-DNPS-TRP-aminopropyl-SO3, tBoc-DNPS-TRP-aminopropylsulfonic acid] | excellent | 90% | 
13 | O=C(N[C@@H](Cc1c(Sc2ccc([N+](=O)[O-])cc2[N+](=O)[O-])[nH]c2ccccc12)C(=O)NCS(=O)(=O)O)OCc1ccccc1 [CBZ-DNPS-TRP-aminomethyl-SO3, CBZ-DNPS-TRP-aminomethylsulfonic acid] | excellent | 90% | 
14 | CC(C)(C)OC(=O)N[C@@H](Cc1c(Sc2ccc([N+](=O)[O-])cc2[N+](=O)[O-])[nH]c2ccccc12)C(=O)NCCS(=O)(=O)O [tBoc-DNPS-TRP-Taurine, tBoc-DNPS-TRP-aminoethylsulfonic acid] | excellent | 95% | 
15 | CC(C)CC(NC(=O)OCc1ccccc1)C(=O)NCCS(=O)(=O)O (centres unmarked) [CBZ-leucine-Taurine, reference compound] | poor | 2% | 
16 | O=C(N[C@@H](Cc1c[nH]c2ccccc12)C(=O)NCP(=O)(O)O)OCc1ccccc1 [CBZ-TRP-aminomethyl-PO3] | poor | 5% | 
17 | O=C(N[C@@H](Cc1c(Sc2ccccc2[N+](=O)[O-])[nH]c2ccccc12)C(=O)NCCS(=O)(=O)O)OCc1ccccc1 [CBZ-NPS-TRP-TAU] | good | 30% | pIC50 [1, 6]: 3.26
